According to US20230114728A1 (Venatorx Pharmaceuticals, Inc., priority 2019, published 2023):
In brackets after ≈: the same amount, converted by molar mass. Read-outs that look alike come from different tables or passages of the source.

Columns and labels:
P. aeruginosa PBP3 = biological target: T1, P. aeruginosa PBP3 (Pseudomonas aeruginosa, UniProt G3XD46); experiment: Bocillin-FL fluorescence polarization competition binding assay, P. aeruginosa PBP3; conditions: fluorescence polarization competition binding assay using Bocillin-FL
T1 construct: made in house
Text: (§1) Example I: Experimental Method for Penicillin-Binding Protein Binding Assays with Bocillin-FL Via Fluorescence Polarization
(§2) To determine the ability of boronic acid-based test PBP inhibitors to bind Penicillin Binding Proteins (PBPs), Bocillin-FL (fluorescently-labeled penicillin V; ThermoFisher Scientific) was used in a fluorescence polarization (FP) competition binding assay to assess inhibitor binding to PBP2, PBP3 or PBP4 from Escherichia coli (K12), PBP3 from Pseudomonas aeruginosa (PA01), PBP1a, PBP2 and PBP3 from Acinetobacter baumannii (ATCC 19606), and PBP2 from Neiserria gonorrheae (FA19). PBPs were cloned and purified as described previously (E. coli PBPs, King, D. T, et al., ACS Infectious Diseases 2015, 1, 175-184; P. aeruginosa PBP3, Han et. al., PNAS 2010, 107 (51), 22002-22007; A. baumannii PBPs, Penwell et. al., Antimicrob. Agents Chemother. 2015, 59 (3), 1680-1689; N. gonorrhoeae PBP2, Singh et. al., J Biol. Chem. 2019, 294 (38), 14020-14032). To establish assay conditions for competition binding, enzyme titration/saturation binding experiments were initially performed. Bocillin-FL was prepared at 0.2 μM in a buffer comprised of 50 mM Hepes (pH 8.0), 300 mM NaCl and 5% (v/v) glycerol for reactions with E. coli, P. aeruginosa and N. gonorrhoeae PBPs, and 25 mM Tris (pH 8.0), 200 mM NaCl and 10% (v/v) glycerol and 0.005% (v/v) Tween 20 for reactions with A. baumannii PBPs. Saturation binding was performed by mixing 40 μl of PBP solutions ranging in concentrations from 0-24 μM with 40 μl of the 0.2 μM Bocillin-FL solution, in individual wells of a black 384-well microplate. FP was measured immediately upon mixing (Excitation, 490 nm; Emission, 520 nm; g-factor, 0.96), using a Cytation3 (BioTek) microplate reader and measured continuously for up to 120 minutes. […] The competition binding assay (80 μl final volume) was validated using beta-lactams and PBPs at final concentrations of: 1.5 μM, E. coli PBP3; 0.75 μM, P. aeruginosa PBP3; 1 μM A. baumannii PBP1a; 2.5 μM A. baumannii PBP2; 0.2 μM A. baumannii PBP3; and […] N. gonorrhoeae PBP2. Bocillin-FL was at 0.1 μM (0.05 μM with A. baumannii PBP1a) and beta-lactam concentrations ranged from 0-1000 μM. […] Bocillin-FL was added and the FP immediately measured for up to 60 minutes (90 minutes for E. coli PBP2). […] The beta-lactam potency was reported as the concentration of beta-lactam required to reduce the amount of PBP bound-Bocillin-FL by 50% (EC50). […] Binding assays for boronic acid PBP inhibitors were performed in an identical fashion for the respective PBPs

E. coli K12 PBP3 = biological target: T2, E. coli K12 PBP3 (Escherichia coli, UniProt P0AD68); experiment: biochemical; format: binding
T2 construct: made in house
Text: as §1, §2

E. coli AG100 = experiment: Broth microdilution MIC in CAMHB; format: cell-based; conditions: Escherichia coli, MHB, read-out: Minimum Inhibitory Concentration, E. coli AG100
Description: (§3) Example III: In Vitro Antibacterial Assays
(§4) To determine the ability of test compounds to inhibit the growth of bacterial strains, classic cell based broth microdilution minimum inhibitory concentration (MIC) assays were employed. MIC assays are performed according to CLSI methods except where otherwise noted (CLSI, 2018 and CLSI, 2019). The reference type strain E. coli ATCC 25922; the wild-type parent strain E. coli AG100; the hyper-permeable E. coli 901C and E. coli D22; and the E. coli AG100A strain lacking the acrAB efflux pump encoding genes were used to determine the ability of the PBP inhibitors to penetrate the outer membrane of gram-negative bacteria and inhibit bacterial growth. […] The P. aeruginosa ATCC 27853 and A. baumannii ATCC 19606, along with the hyper-permeable P. aeruginosa ATCC 35151 and an engineered efflux pump-compromised strain of P. aeruginosa (ΔmexAB-oprM) were used to determine the ability of PBP inhibitors to penetrate the outer membrane of P. aeruginosa and A. baumannii and assess antibacterial activity against these important gram-negative organisms.
(§5) Briefly, cryo-preserved bacterial cultures of challenge strains are streaked for isolation on appropriate agar medium, in this case cation-adjusted Mueller Hinton agar. Following incubation to allow growth of the colonies, plates are sealed with parafilm and stored refrigerated for up to two weeks. For preparation of assay inoculum and to ensure low variability, at least 5 colonies are picked from the agar plates with an inoculating loop and aseptically transferred to a culture tube containing 3 mL of cation-adjusted Mueller Hinton broth (CAMHB). The broth culture is grown for 3-5 hours at 37° C. with shaking at 200 rpm. Meanwhile, 2-fold serial dilutions of test compounds are conducted in a 96-well plate with a final volume of 75 μL per well at 2-fold the final desired concentration. After the dilution plates are set up the growing cultures are then diluted in a cuvette containing CAMHB and the optical density is measured at 600 nm. The inoculum is diluted such that 75 μL of this culture in CAMHB results in a starting bacterial concentration of 2-8×10^5 CFU/mL when added to the dilution plates. The plates are incubated for 16-20 hours for Enterobacteriaceae and Pseudomonas and 20-24 hours for Acinetobacter at 37° C. The MIC values are read visually as the lowest concentration well with no bacterial growth.

E. coli D22 = experiment: Broth microdilution MIC in CAMHB; format: cell-based; conditions: Escherichia coli, MHB, read-out: Minimum Inhibitory Concentration, E. coli D22
Description: as §3, §4, §5

[1] = system: K. pneumoniae SI-117 producing VIM-1; experiment: Broth microdilution MIC in CAMHB; format: cell-based; conditions: Klebsiella pneumoniae, read-out: Minimum Inhibitory Concentration, K. pneumoniae SI-117
Description: as §3, §4, §5

A. baumannii ATCC 19606 = experiment: Broth microdilution MIC in CAMHB; format: cell-based; conditions: Acinetobacter baumannii, ATCC19606; MHB; read-out: Minimum Inhibitory Concentration, A. baumannii ATCC 19606
Description: as §3, §4, §5

E. coli AG100A = experiment: Broth microdilution MIC in CAMHB; format: cell-based; conditions: Escherichia coli, read-out: Minimum Inhibitory Concentration, E. coli AG100A
Description: as §3, §4, §5

E. coli ATCC 25922 = experiment: Broth microdilution MIC in CAMHB; format: cell-based
Description: as §3, §4, §5

E. coli 901C = experiment: Broth microdilution MIC in CAMHB; format: cell-based; conditions: Escherichia coli, MHB, read-out: Minimum Inhibitory Concentration, E. coli 901C
Description: as §3, §4, §5

[2] = system: P. aeruginosa (ΔmexAB-oprM); experiment: Broth microdilution MIC in CAMHB; format: cell-based; conditions: Pseudomonas aeruginosa, read-out: Minimum Inhibitory Concentration, P. aeruginosa ΔmexAB-OprM
Description: as §3, §4, §5

P. aeruginosa ATCC 27853 = experiment: Broth microdilution MIC in CAMHB; format: cell-based; conditions: Pseudomonas aeruginosa, ATCC27853; MHB; read-out: Minimum Inhibitory Concentration, P. aeruginosa ATCC 27853
Description: as §3, §4, §5

[3] = system: K. pneumoniae 848844 producing SHV-11 and KPC-2; experiment: Broth microdilution MIC in CAMHB; format: cell-based; conditions: Klebsiella pneumoniae, read-out: Minimum Inhibitory Concentration, K. pneumoniae 848844
Description: as §3, §4, §5

P. aeruginosa ATCC 35151 = experiment: Broth microdilution MIC in CAMHB; format: cell-based; conditions: Pseudomonas aeruginosa, ATCC35151; MHB; hyper-permeable strain; read-out: Minimum Inhibitory Concentration, P. aeruginosa ATCC 35151
Description: as §3, §4, §5

[4] = system: K. pneumoniae UMM producing SHV-5 and KPC-2; experiment: Broth microdilution MIC in CAMHB; format: cell-based; conditions: Klebsiella pneumoniae, read-out: Minimum Inhibitory Concentration, K. pneumoniae UMM
Description: as §3, §4, §5

[5] = E. coli AG100 (wild-type parent)
[6] = Escherichia coli, ATCC25922; E. coli ATCC 25922; MHB; read-out: Minimum Inhibitory Concentration, E. coli 25922
[7] = wild-type parent strain E. coli AG100
[8] = Escherichia coli, ATCC25922; MHB; E. coli ATCC 25922; read-out: Minimum Inhibitory Concentration, E. coli 25922

T1 sequence (G3XD46 whole entry): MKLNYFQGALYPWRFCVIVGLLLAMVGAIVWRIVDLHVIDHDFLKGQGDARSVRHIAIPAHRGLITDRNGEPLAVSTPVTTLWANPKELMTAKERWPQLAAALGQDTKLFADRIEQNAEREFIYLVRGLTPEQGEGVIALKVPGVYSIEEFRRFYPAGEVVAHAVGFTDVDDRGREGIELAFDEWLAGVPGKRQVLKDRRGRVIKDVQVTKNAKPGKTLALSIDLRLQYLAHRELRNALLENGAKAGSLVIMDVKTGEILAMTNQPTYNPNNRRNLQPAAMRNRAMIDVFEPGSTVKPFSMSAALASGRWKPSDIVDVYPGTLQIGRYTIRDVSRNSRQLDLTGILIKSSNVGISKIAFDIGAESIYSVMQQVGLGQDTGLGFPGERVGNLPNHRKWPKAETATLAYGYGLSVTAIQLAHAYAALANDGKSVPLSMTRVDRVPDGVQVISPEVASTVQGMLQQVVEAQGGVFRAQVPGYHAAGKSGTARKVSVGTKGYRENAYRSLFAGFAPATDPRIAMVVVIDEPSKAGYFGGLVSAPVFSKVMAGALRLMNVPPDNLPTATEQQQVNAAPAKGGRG
T2 sequence (P0AD68 1-577): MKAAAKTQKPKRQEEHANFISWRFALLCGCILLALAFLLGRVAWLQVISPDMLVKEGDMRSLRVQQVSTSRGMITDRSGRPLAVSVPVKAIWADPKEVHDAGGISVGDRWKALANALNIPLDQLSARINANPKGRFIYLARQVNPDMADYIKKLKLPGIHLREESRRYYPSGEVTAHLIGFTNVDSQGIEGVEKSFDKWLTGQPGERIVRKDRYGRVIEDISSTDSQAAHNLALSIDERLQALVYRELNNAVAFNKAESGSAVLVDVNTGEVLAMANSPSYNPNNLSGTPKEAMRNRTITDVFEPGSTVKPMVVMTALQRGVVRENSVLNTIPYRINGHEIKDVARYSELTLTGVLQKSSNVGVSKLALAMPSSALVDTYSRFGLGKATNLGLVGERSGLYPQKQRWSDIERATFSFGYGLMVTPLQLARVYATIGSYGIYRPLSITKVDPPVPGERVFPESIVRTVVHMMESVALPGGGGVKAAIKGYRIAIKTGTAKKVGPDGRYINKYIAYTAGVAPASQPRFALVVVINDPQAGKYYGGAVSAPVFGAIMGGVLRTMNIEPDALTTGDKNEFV

Structure (SMILES)	P. aeruginosa PBP3 Potency (P. aeruginosa PBP3)	EC50 (E. coli K12 PBP3) [µM]	MIC (E. coli AG100; [5]) [µg/mL]	MIC (E. coli D22; E. coli D22 (hyper-permeable)) [µg/mL]	MIC [1] [µg/mL]	MIC (A. baumannii ATCC 19606) [µg/mL]	MIC (E. coli AG100A) [µg/mL]	MIC (E. coli ATCC 25922; [6]) [µg/mL]	MIC (E. coli 901C; E. coli 901C (hyper-permeable)) [µg/mL]	MIC [2] [µg/mL]	MIC (P. aeruginosa ATCC 27853) [µg/mL]	MIC [3] [µg/mL]	MIC (P. aeruginosa ATCC 35151) [µg/mL]	MIC [4] [µg/mL]	MIC (E. coli AG100; [7]) [µg/mL]	MIC (E. coli D22; hyper-permeable E. coli D22) [µg/mL]	MIC (E. coli ATCC 25922; [8]) [µg/mL]	MIC (E. coli 901C; hyper-permeable E. coli 901C) [µg/mL]
NS(=O)(=O)Nc1ccc(F)c([C@@H](NC(=O)N2CCN(CC(F)(F)F)C(=O)C2=O)C(=O)N[C@H]2Cc3cccc(C(=O)O)c3OB2O)c1 (single isomer, unassigned) [Example 219]	D (D represents a potency <10 μM)	< 30	32 to 64 (≈ 47.5 to 94.9 µM)	2 to 4 (≈ 2.97 to 5.93 µM)	32 to 64 (≈ 47.5 to 94.9 µM)	> 128	2 to 4 (≈ 2.97 to 5.93 µM)	32 to 64 (≈ 47.5 to 94.9 µM)	0.5 to 1 (≈ 0.741 to 1.48 µM)	8 to 16 (≈ 11.9 to 23.7 µM)	> 128	> 128	2 to 4 (≈ 2.97 to 5.93 µM)	32 to 64 (≈ 47.5 to 94.9 µM)				
CCN1CCN(C(=O)N[C@H](C(=O)N[C@H]2Cc3cccc(C(=O)O)c3OB2O)c2ccc(C(=O)O)c(Cl)c2F)C(=O)C1=O (single isomer, unassigned) [Example 221]	C (C represents a potency between 10 and 30 μM)		> 128	> 128	8 to 16 (≈ 13.2 to 26.5 µM)	> 128	> 128	32 to 64 (≈ 52.9 to 106 µM)	> 128	32 to 64 (≈ 52.9 to 106 µM)	> 128	> 128	2 to 4 (≈ 3.31 to 6.61 µM)	0.5 to 1 (≈ 0.827 to 1.65 µM)				
NCCN1CCN(C(=O)N[C@@H](C(=O)N[C@H]2Cc3cccc(C(=O)O)c3OB2O)c2c(F)cccc2F)C(=O)C1=O (single isomer, unassigned) [Example 223]	D (D represents a potency <10 μM)				8 to 16 (≈ 14.3 to 28.6 µM)	> 128	> 128			32 to 64 (≈ 57.2 to 114 µM)	> 128	> 128	2 to 4 (≈ 3.58 to 7.15 µM)	2 to 4 (≈ 3.58 to 7.15 µM)	> 128	> 128	> 128	> 128
C[C@H]1CN(CCCN)C(=O)C(=O)N1C(=O)NC(C(=O)N[C@H]1Cc2cccc(C(=O)O)c2OB1O)c1ccc(O)c(F)c1F (stereo partly drawn) [Example 243, (3R)-3-(2-((S)-4-(3-aminopropyl)-6-methyl-2,3-dioxopiperazine-1-carboxamido)-2-(2,3-difluoro-4-hydroxyphenyl)acetamido)-2-hydroxy-3,4-dihydro-2H-benzo[e][1,2]oxaborinine-8-carboxylic acid]	D (D represents a potency <10 μM)				2 to 4 (≈ 3.31 to 6.63 µM)	> 128	32 to 64 (≈ 53 to 106 µM)			8 to 16 (≈ 13.3 to 26.5 µM)	> 128	32 to 64 (≈ 53 to 106 µM)	2 to 4 (≈ 3.31 to 6.63 µM)	0.5 to 1 (≈ 0.829 to 1.66 µM)	32 to 64 (≈ 53 to 106 µM)	32 to 64 (≈ 53 to 106 µM)	32 to 64 (≈ 53 to 106 µM)	> 128
